Reference: patent publication US7531320B2, “Modulation of β-catenin/TCF-activated transcription” (priority 2003, dated 2009)

System: c-jun
Assay: Real Time RT-PCR in SW480 cells, c-jun
Assay type: cell-based, human
Conditions: 25 μM; for ΔCT c-jun: relative to β-actin
Description: The RNeasy Midi Kit (Qiagen) was used for RNA extraction and Real Time RT-PCR was performed according to the protocol provided with the SYBR Green PCR Master Mix Kit (Perkin Elmer Biosystems, Shelton, Conn.). The primers used for cyclin D1, axin2, hnkd, c-myc, c-jun, and fra-1 amplifications were: cyclin D1 forward primer:5′-[…]-CCTGCTG-3′ (SEQ ID NO: 32) reverse primer: 5′-[…]-3′ (SEQ ID NO: 33) leading to a product size of approximately 300 bp; axin2 forward primer: 5′-[…] GGAAA-CT-3′ (SEQ ID NO: 34) and reverse primer: 5′-[…]-GAGA-3′ (SEQ ID NO: 35); hnkd forward primer: 5′-[…] TTGCGT-3′ (SEQ ID NO: 36) and the reverse primer: 5′-[…] ACGT-3′ (SEQ ID NO: 37); c-myc forward primer: 5′-GAA-[…] CTGC-3′ (SEQ ID NO: 38) and reverse primer: 5′-[…]-G-3′ (SEQ ID NO: 39); c-jun forward primer: 5′-[…]-3′ (SEQ ID NO: 40) and reverse primer: 5′-[…]-3′ (SEQ ID NO: 41); fra-1 forward primer: 5′-ACC-[…]-[…]-3′ (SEQ ID NO: 42) and reverse primer: 5′-[…]-TT-3′ (SEQ ID NO: 43). β-actin was used for normalization. […]
1 μg of mRNA, for each time point, was subjected to Real Time RT-PCR. Expression level of endogenous cyclin D1, c-myc, fibronectin, hnkd, axin2, c-jun, and BMP-4 were measured relative to β-actin. Quantitation of The ΔCycle of Threshold (CT) values was determined by subtracting the average values of each set by the corresponding average values obtained for β-actin. […]
The cyclin D1 gene is inappropriately expressed in many different tumor types, and is known to be a direct target of the Wnt/β-catenin pathway (Shtutman et al., “The cyclin D1 gene is a target of the beta-catenin/LEF-1 pathway,” Proc. Natl. Acad. Sci. USA 96:5522-27 (1999); Tetsu et al., “Beta-catenin regulates expression of cyclin D1 in colon carcinoma cells,” Nature 398:422-26 (1999)). […] Expression level of endogenous cyclin D1, c-myc, fibronectin, hnkd, axin2, c-jun, and BMP-4 were measured relative to β-actin. Quantitation of The ΔCycle of Threshold (CT) values was determined by subtracting the average values of each set by the corresponding average values obtained for β-actin. […]

## O=C1C(Cc2ccc(O)cc2)N2C(=O)CCN(C(=O)NCc3ccccc3)C2CN1Cc1cccc2ccccc12 (stereo not drawn) [COMPOUND 1]
  mRNA c-jun (direction): ↑
4 hours
  ΔCT c-jun: 0
24 hours
  ΔCT c-jun: −2.9
